In general, IC50 refers to the point on the concentration scale where inhibition reaches its midpoint.

This assay addresses T1, recombinant autotaxin (Homo sapiens, UniProt Q13822).
T1 construct: made in house; host or cells: Hi5 insect cells (baculovirus)
Briefly: Autotaxin test (enzyme test), Amplex Red fluorescence. The class given is biochemical. The following applies: substrate LPC 75 μM, Amplex Red detection, read-out: IC50 (autotaxin inhibition, enzyme test). The essentials: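 Recombinant human autotaxin from baculovirus/Hi5 (16 ng) was preincubated with compound 30 min at 22 °C. Reaction with 75 μM egg LPC ran 90 min at 37 °C. Released choline was coupled via alkaline phosphatase, choline oxidase and HRP to Amplex Red, read as resorufin fluorescence (ex485/em612) in kinetic mode.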
For `NC(=O)c1nc(CN2C(=O)c3ccccc3C2=O)[nH]c1NC(=O)Nc1ccc(Cl)cc1` [Compound B78], the IC50 is greater than 10 µM.
Then `CCCCc1ccc(NC(=O)Nc2[nH]c(Cc3ccc(C(=O)N4C[C@@H](C)O[C@@H](C)C4)o3)nc2C(N)=O)cc1` [Compound A82, 5-[3-(4-Butylphenyl)ureido]-2-[5-((5R,6S)-2,6-dimethylmorpholine-4-carbonyl)furan-2-yl-methyl]-1H-imidazole-4-carboxamide], with greater than 10 µM.
Then `Cc1ccc(NC(=O)Nc2[nH]c(-c3ccc(OCC(=O)O)cc3)nc2C(N)=O)cc1` [Compound A53, {4-[4-Carbamoyl-5-(3-p-tolylureido)-1H-imidazol 2-yl]phenoxy}acetic acid], with greater than 10 µM; and `CCCCc1ccc(NC(=O)Nc2[nH]c(Cc3ccc(C(=O)N4CCOCC4)cc3)nc2C(N)=O)cc1` [Compound A94, 5-[3-(4-Butylphenyl)ureido]-2-[4-(morpholine-4-carbonyl)benzyl]-1H-imidazole-4-carboxamide], with 1 to 10 µM; and `NC(=O)c1nc(Cc2ccc(C(=O)NCCc3c[nH]cn3)cc2)[nH]c1NC(=O)Nc1ccc(C(F)(F)F)cc1` [Compound A103, 2-{4-[2-(1H-Imidazol-4-yl)ethylcarbamoyl]benzyl}-5-[3-(4-trifluoromethylphenyl)ureido]-1H-imidazole-4-carboxamide], with greater than 10 µM.
`NC(=O)c1nc(Cc2ccc(C(=O)O)o2)[nH]c1NC(=O)Nc1ccc(Cl)cc1` [Compound A30, 5-{4-Carbamoyl-5-[3-(4-chlorophenyl)ureido]-1H-imidazol-2-ylmethyl}furan-2-carboxylic acid]: the IC50 was in the range of 1 to 10 µM.
Then `NC(=O)c1nc(Cc2ccc(C(=O)O)o2)[nH]c1NC(=O)Nc1ccc(Cl)c(C(F)(F)F)c1` [Compound A29, 5-{4-Carbamoyl-5-[3-(4-chloro-3-trifluoromethyl-phenyl)ureido]-1H-imidazol-2-ylmethyl}furan-2-carboxylic acid], with greater than 10 µM.
Consider `CCCCOc1ccc(NC(=O)Nc2[nH]c(Cc3ccc(O)cc3)nc2C(N)=O)cc1` [Compound A95, 5-[3-(4-Butoxyphenyl)ureido]-2-(4-hydroxy-benzyl)-1H-imidazole-4-carboxamides], for which the IC50 is greater than 10 µM.
Then `COc1cc(NC(=O)Nc2[nH]c(COc3ccc(CC(=O)O)cc3)nc2C(N)=O)cc(OC)c1` [Compound A63, (4-{4-Carbamoyl-5-[3-(3,5-dimethoxyphenyl)-ureido]-1H-imidazol-2-ylmethoxy}phenyl)acetic acid], with greater than 10 µM; and `CCCCc1ccc(NC(=O)Nc2[nH]c(Cc3ccc(C(=O)N4CCOCC4)o3)nc2C(N)=O)cc1` [Compound A83, 5-[3-(4-Butylphenyl)ureido]-2-[5-(morpholine-4-carbonyl)furan-2-ylmethyl]-1H-imidazole-4-carboxamide], with greater than 10 µM; and `NC(=O)c1nc(Cc2ccc(C(=O)O)o2)[nH]c1NC(=O)Nc1ccc(C(F)(F)F)cc1` [Compound A10, 5-{4-Carbamoyl-5-[3-(4-trifluoromethylphenyl)-ureido]-1H-imidazol-2-ylmethyl}furan-2-carboxylic acid], with 1 to 10 µM.
Then `CCc1ccc(NC(=O)Nc2[nH]c(Cc3ccc(OCC(=O)O)cc3)nc2C(N)=O)cc1` [Compound A42, (4-{4-Carbamoyl-5-[3-(4-ethylphenyl)ureido]-1H imidazol-2-ylmethyl}phenoxy)acetic acid], with 1 to 10 µM.
Then `Cc1ccc(NC(=O)Nc2[nH]c(Cc3ccc(C(=O)O)cc3)nc2C(N)=O)cc1` [Compound A5, 4-[4-Carbamoyl-5-(3-p-tolylureido)-1H-imidazol 2-ylmethyl]benzoic acid], with greater than 10 µM; and `NC(=O)c1nc(Cc2ccc([N+](=O)[O-])cc2)[nH]c1NC(=O)Nc1ccc(C(F)(F)F)cc1` [Compound A96, 2-(4-Nitrobenzyl)-5-[3-(4-trifluoromethylphenyl)-ureido]-1H-imidazole-4-carboxamide], with greater than 10 µM.

For the origin of these results see patent US20100249132A1, “IMIDAZOLE DERIVATIVES” (MERCK PATENT GESELLSCHAFT MIT BESCHRANKTER HAFTUNG, priority 2007, published 2010).
